From ChEMBL document CHEMBL1201862, “PubChem BioAssay data set” (2004)
Activity calls are given as the source filed them.

Columns and labels:
Estrogen receptor = molecular target: T1, Estrogen receptor (Homo sapiens, UniProt P03372); experiment: ERα coactivator recruitment enhancers – biochemical, TR-FRET, ERα LBD, dose response (AID 737)
T1 sequence (P03372 whole entry): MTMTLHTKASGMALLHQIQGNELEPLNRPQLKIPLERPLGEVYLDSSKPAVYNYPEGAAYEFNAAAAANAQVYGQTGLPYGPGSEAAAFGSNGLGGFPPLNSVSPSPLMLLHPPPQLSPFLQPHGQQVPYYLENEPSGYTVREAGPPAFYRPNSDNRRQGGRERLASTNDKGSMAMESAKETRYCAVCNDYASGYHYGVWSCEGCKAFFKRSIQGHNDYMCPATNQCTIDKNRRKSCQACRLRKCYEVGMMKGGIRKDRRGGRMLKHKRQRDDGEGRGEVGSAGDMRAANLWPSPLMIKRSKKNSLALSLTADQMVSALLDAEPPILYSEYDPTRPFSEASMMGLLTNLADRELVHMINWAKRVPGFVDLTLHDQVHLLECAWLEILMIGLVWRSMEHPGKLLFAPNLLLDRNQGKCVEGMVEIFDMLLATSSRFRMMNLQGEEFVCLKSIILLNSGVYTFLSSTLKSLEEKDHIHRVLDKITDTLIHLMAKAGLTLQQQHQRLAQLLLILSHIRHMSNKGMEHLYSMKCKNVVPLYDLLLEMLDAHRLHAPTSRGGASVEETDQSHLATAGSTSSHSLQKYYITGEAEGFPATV

Caspase-7 = molecular target: T2, Caspase-7 (Homo sapiens, UniProt P55210); experiment: potency of procaspase-7 enzyme activation – biochemical, absorbance, human, dual procaspase-3/-7 activator project, dose response (AID 504330)
T2 sequence (P55210 whole entry): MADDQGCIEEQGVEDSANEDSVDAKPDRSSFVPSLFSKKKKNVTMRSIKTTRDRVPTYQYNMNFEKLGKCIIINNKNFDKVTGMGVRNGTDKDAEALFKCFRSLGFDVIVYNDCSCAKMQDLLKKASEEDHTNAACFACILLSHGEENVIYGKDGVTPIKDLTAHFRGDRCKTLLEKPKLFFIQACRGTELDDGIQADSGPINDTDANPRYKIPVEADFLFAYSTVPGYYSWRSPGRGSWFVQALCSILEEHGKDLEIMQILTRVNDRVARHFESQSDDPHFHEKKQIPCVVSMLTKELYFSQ

Caspase-3 = molecular target: T3, Caspase-3 (Homo sapiens, UniProt P42574); experiment: activators of human procaspase-3 D3A mutant – biochemical, absorbance, PC-3 D3A mutant, counter-screen for dual procaspase-3/7 activator project, dose response (AID 504328)
T3 sequence (P42574 whole entry): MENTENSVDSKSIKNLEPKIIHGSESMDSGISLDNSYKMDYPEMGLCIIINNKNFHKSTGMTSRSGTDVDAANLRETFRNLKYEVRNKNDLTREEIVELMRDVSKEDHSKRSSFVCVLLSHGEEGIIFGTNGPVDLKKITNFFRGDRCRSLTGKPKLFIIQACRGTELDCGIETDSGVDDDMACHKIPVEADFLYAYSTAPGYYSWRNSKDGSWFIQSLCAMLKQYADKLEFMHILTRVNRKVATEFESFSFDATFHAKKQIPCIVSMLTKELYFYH

[1] = A Cell Based Secondary Assay To Explore Cytotoxicity of Compounds that Sensitize Mycobacterium Tuberculosis to Beta-Lactam Antibiotics.; type: functional
[2] = molecular target: Peroxisome proliferator-activated receptor gamma/Nuclear receptor coactivator 3 (Homo sapiens, UniProt P37231); type: functional;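 also: agonist potency for raising coactivator recruitment to the receptor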
[3] = molecular target: T4, Voltage-gated N-type calcium channel alpha-1B subunit/Amyloid beta A4 precursor protein-binding family A member 1 (Homo sapiens, UniProt Q00975+Q02410); type: protein assay
[4] = molecular target: Peroxisome proliferator-activated receptor gamma/Nuclear receptor coactivator 1 (Homo sapiens, UniProt P37231); type: functional;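 also: agonist potency as compounds enhance coactivator SRC-1 recruitment to PPARgamma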
[5] = molecular target: DNA dC->dU-editing enzyme APOBEC-3G (Homo sapiens, UniProt Q9HC16); experiment: Dose Response confirmation of small molecule APOBEC3G DNA Deaminase Inhibitors via a fluorescence-based single-stranded DNA deaminase assay. [Related pubchem assays (depositor defined):AID493012, AID493028]; type: functional
[6] = molecular target: T4, Voltage-gated N-type calcium channel alpha-1B subunit/Amyloid beta A4 precursor protein-binding family A member 1; type: protein assay; remark: listed apart in the source
[7] = molecular target: Peroxisome proliferator-activated receptor gamma/Nuclear receptor coactivator 2 (Homo sapiens, UniProt P37231); type: functional;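 also: agonist potency for raising coactivator recruitment to the receptor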
Cytochrome P450 2D6 = Cytochrome P450 2D6 (Homo sapiens, UniProt P10635); experiment: qHTS Assay for Inhibitors and Substrates of Cytochrome P450 2D6. [Related pubchem assays: 410 ]; type: ADME; details: read-out: Potency
[8] = molecular target: T5, Alkaline phosphatase, tissue-nonspecific isozyme (Homo sapiens, UniProt P05186); experiment: potency against alkaline phosphatase TNAP – biochemical, luminescent, dose response, SAR follow-up (AID 1056)
T5 sequence (P05186 whole entry): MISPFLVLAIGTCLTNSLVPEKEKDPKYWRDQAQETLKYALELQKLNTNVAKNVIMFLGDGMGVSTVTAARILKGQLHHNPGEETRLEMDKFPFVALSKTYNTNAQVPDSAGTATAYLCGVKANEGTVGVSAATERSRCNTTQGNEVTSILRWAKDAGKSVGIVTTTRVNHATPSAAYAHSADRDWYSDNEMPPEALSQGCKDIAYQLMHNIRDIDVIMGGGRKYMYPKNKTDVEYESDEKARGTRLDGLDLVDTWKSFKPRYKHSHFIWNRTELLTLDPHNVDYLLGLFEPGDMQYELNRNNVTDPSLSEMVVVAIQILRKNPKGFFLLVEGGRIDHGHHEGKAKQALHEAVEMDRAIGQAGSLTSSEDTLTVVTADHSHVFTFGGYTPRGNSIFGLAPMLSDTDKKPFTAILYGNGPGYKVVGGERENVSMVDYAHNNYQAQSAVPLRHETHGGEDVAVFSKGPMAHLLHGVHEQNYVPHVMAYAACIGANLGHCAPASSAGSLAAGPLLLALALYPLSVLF

[9] = molecular target: Alkaline phosphatase, placental type (Homo sapiens, UniProt P05187); experiment: human placental alkaline phosphatase inhibition – biochemical, luminescence, confirmation (AID 1512); type: functional
[10] = molecular target: Glyceraldehyde-3-phosphate dehydrogenase (Homo sapiens, UniProt P04406)
HeLa = experiment: Cytotoxicity counterscreen assay for transcriptional activators of heat shock protein 70 (Hsp70). [Related pubchem assays: 1203, 1252 ]; type: functional; details: Homo sapiens
[11] = microbe, parasite or virus in culture; type: functional; details: Mycobacterium tuberculosis
[12] = viability loss in THP-1 monocytes – THP-1 cells, cytotoxicity control for Vif-APOBEC3G degradation inhibitor project, dose response (AID 1117359); type: functional; details: THP-1
[13] = molecular target: Neurotensin receptor type 1 (Homo sapiens, UniProt P30989); type: functional;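 also: Image-based confirmatory dose-response assay measuring agonist activity at NTR1; NTR1-expressing U2OS osteosarcoma cells imaged for beta-arrestin GFP spot formation; agonist potency where compounds increase beta-arrestin recruitment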
[14] = Luminescence Cell-Based Dose Retest to Confirm Inhibitors of Cancer Stem Cells. [Related pubchem assays (depositor defined):AID2717, AID2721]; type: functional; details: Homo sapiens
Cytochrome P450 3A4 = Cytochrome P450 3A4 (Homo sapiens, UniProt P08684); details: Potency;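 also: confirmatory qHTS run detecting inhibitors and substrates of CYP3A4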
[15] = molecular target: T6, Kappa-type opioid receptor (Homo sapiens, UniProt P41145); experiment: SAR analysis of Antagonists of the Kappa Opioid Receptor (KOR) using an Image-Based Assay - Set 3. [Related pubchem assays (depositor defined):AID1777, AID1785]; type: functional
[16] = molecular target: Delta-type opioid receptor (Homo sapiens, UniProt P41143); experiment: SAR Analysis of Antagonists of the DOR Receptor using an Image-Based Assay - Set 3. [Related pubchem assays (depositor defined):AID1777, AID1785]; type: functional;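 also: U2OS cells expressing DOR1 and beta-arrestin GFP stimulated with 100 nM SNC80; imaging of GFP-tagged beta-arrestin moving into spots after receptor activation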
[17] = molecular target: T6, Kappa-type opioid receptor; experiment: SAR analysis of small molecule antagonists of the kappa opioid receptor via a luminescent beta-arrestin assay - Set 3. [Related pubchem assays (depositor defined):AID1777, AID1778, AID1785, AID1786, AID1966, AID2133, AID2136, AID2285, AID2495]; type: functional
Mu-type opioid receptor = Mu-type opioid receptor (Homo sapiens, UniProt P35372); experiment: SAR Analysis of Antagonists of the MOR Receptor using an Image-Based Assay - Set 3. [Related pubchem assays (depositor defined):AID1777, AID1785, AID1786, AID1966, AID2133, AID2136, AID2284, AID2285, AID2420]; type: functional
[18] = molecular target: DNA dC->dU-editing enzyme APOBEC-3A (Homo sapiens, UniProt P31941); experiment: A3A deaminase inhibition for selectivity – biochemical, dose response (AID 504722); type: functional
Large T antigen = Large T antigen (Simian virus 40, UniProt P03070); type: functional, Betapolyomavirus macacae;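 also: Confirmatory-stage PubChem screen for compounds that inhibit SV40 T antigen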
[19] = molecular target: T7, Short transient receptor potential channel 4 (Mus musculus, UniProt Q9QUQ5); experiment: block of DAMGO-driven TRPC4 calcium entry – cell-based, HEK293 TRPC4/mu-opioid, Fluo-4 calcium, dose response (AID 434942); type: functional;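 also: potency of inhibitors blocking the TRPC4 calcium response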
T7 sequence (Q9QUQ5 whole entry): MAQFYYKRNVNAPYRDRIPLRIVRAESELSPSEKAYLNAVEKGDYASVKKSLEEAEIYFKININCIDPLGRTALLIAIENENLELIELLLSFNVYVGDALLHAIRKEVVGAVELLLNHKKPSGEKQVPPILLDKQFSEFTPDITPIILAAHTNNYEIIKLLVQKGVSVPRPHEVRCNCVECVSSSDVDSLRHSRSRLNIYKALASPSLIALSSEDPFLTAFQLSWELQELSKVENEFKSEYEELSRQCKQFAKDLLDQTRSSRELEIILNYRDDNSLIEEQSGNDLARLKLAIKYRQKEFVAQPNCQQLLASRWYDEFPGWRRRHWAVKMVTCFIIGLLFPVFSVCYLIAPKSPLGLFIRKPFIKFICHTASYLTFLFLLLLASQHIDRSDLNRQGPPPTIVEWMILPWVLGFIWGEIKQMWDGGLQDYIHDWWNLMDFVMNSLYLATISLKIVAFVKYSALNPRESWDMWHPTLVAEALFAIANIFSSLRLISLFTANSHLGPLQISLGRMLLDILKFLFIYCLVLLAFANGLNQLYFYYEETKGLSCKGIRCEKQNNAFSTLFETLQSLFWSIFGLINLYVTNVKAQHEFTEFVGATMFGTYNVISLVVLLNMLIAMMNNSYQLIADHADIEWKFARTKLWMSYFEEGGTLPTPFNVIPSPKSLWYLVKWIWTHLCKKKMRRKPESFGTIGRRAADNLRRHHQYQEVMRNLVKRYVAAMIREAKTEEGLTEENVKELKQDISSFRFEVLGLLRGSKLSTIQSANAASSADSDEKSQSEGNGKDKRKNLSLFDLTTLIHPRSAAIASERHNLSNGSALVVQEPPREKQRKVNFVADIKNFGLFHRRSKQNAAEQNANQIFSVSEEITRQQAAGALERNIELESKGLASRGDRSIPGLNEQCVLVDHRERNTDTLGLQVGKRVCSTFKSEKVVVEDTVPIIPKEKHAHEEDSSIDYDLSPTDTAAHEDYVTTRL

T4 sequence (Q00975 whole entry): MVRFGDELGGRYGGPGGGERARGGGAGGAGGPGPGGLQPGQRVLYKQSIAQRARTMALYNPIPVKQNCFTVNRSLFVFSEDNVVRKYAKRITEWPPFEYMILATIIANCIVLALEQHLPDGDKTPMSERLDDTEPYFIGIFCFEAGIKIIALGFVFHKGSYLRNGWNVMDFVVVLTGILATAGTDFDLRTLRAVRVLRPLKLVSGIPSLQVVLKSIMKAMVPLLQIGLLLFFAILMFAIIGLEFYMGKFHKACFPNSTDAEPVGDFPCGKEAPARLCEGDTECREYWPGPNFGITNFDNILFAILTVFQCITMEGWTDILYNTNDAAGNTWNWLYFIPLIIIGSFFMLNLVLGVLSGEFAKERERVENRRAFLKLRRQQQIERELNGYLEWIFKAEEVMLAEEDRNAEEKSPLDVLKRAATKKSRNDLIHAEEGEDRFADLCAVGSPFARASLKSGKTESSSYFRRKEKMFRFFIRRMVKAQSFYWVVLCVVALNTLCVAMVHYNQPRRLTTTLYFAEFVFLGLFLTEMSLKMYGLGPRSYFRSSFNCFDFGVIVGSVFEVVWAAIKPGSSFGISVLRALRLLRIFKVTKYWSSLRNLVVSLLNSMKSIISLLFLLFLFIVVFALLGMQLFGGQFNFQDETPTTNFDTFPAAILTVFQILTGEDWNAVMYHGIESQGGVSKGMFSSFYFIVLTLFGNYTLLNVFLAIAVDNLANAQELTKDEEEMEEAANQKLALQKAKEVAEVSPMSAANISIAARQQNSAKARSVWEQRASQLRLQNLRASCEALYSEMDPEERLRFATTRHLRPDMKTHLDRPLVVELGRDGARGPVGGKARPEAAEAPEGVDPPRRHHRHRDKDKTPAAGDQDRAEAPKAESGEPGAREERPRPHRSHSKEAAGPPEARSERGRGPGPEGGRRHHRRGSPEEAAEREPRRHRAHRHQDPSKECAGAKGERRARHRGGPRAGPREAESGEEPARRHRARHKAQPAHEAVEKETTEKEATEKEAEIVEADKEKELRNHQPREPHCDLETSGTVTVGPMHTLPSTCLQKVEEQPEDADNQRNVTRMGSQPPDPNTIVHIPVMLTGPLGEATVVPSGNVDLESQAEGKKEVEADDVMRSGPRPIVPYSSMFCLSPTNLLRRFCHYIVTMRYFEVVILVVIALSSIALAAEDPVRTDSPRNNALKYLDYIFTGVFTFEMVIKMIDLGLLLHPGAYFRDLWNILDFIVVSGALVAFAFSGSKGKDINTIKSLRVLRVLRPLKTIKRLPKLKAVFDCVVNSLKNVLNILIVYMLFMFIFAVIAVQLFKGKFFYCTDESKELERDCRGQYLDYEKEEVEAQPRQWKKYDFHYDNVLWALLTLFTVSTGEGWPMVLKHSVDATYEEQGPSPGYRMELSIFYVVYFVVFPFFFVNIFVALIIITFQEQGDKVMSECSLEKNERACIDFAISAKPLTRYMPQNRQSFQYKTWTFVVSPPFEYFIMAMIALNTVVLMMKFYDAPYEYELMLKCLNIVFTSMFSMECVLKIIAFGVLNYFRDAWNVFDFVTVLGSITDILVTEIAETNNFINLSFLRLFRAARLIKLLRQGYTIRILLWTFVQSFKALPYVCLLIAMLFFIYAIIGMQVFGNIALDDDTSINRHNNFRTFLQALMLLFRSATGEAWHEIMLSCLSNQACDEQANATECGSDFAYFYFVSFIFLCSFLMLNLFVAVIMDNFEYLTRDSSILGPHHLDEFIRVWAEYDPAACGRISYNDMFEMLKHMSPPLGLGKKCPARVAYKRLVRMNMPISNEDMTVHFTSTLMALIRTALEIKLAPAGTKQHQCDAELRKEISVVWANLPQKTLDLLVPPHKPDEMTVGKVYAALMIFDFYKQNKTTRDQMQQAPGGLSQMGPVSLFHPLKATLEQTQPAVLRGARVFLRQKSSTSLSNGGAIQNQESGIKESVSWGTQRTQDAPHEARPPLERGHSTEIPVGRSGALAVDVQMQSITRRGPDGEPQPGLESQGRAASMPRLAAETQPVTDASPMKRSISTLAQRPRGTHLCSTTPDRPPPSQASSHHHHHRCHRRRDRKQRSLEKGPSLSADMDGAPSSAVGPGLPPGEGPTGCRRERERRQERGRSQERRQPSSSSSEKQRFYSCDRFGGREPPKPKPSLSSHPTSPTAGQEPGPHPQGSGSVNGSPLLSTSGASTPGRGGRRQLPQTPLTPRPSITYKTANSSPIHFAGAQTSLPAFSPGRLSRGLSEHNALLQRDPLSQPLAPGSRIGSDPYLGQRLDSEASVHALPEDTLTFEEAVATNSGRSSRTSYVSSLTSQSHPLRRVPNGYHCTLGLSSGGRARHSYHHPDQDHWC
T4 sequence (Q02410 whole entry): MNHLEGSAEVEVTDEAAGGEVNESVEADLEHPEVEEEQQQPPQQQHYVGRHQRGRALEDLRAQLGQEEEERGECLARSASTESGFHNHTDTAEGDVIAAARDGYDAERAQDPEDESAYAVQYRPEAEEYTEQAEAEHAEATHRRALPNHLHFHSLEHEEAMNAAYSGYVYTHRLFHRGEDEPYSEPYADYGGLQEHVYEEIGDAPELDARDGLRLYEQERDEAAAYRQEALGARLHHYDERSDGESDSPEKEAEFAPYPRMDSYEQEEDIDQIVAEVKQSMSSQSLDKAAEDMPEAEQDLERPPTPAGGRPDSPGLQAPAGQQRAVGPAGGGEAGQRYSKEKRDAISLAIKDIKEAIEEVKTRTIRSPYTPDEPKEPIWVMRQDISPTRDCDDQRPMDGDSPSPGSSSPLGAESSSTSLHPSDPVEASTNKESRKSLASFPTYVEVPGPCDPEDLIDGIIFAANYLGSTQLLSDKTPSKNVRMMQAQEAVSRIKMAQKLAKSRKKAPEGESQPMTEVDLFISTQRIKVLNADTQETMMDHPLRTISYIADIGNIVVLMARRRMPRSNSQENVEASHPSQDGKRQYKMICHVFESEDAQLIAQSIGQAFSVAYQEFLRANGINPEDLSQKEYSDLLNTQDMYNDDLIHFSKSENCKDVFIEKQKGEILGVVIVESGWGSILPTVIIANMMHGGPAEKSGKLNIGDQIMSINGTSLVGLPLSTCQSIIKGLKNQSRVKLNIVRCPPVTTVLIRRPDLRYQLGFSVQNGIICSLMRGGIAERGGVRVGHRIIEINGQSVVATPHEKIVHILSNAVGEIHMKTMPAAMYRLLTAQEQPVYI
DNA dC->dU-editing enzyme APOBEC-3G, sequence (Q9HC16 whole entry): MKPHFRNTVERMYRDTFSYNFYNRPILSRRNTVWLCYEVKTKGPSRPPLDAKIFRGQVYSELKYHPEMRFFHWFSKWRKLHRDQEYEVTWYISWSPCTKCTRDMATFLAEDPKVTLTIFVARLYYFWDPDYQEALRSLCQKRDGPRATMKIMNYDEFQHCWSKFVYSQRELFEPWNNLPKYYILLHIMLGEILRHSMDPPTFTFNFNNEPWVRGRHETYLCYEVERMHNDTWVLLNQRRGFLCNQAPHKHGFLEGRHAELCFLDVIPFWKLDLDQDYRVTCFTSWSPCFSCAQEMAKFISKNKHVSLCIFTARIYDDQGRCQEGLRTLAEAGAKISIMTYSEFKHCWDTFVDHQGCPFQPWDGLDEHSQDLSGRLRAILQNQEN
T6 sequence (P41145 whole entry): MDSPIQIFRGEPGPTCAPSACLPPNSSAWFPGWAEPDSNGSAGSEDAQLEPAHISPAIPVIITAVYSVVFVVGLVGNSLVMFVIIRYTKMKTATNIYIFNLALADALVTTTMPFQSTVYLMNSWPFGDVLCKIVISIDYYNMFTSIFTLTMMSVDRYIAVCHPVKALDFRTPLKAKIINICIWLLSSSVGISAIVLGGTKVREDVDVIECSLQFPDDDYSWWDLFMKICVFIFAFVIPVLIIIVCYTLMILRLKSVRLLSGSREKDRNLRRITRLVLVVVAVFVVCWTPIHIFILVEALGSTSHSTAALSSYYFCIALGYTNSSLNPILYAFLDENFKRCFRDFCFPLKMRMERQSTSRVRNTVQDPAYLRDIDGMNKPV
Alkaline phosphatase, placental type, sequence (P05187 whole entry): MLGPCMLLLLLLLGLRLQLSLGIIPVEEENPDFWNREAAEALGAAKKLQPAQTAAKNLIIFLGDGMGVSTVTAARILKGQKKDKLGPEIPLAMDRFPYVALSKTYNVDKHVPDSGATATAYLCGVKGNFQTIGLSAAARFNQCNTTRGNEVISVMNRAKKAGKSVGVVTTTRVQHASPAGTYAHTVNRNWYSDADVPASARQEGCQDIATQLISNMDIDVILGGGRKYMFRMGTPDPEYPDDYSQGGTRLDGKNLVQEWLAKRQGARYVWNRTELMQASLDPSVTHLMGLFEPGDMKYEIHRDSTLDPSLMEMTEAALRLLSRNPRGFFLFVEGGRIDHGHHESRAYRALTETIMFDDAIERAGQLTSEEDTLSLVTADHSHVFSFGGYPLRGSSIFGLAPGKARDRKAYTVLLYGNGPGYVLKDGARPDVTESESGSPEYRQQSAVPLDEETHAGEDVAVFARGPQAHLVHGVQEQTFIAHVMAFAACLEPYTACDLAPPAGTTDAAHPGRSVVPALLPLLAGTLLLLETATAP
DNA dC->dU-editing enzyme APOBEC-3A, sequence (P31941 whole entry): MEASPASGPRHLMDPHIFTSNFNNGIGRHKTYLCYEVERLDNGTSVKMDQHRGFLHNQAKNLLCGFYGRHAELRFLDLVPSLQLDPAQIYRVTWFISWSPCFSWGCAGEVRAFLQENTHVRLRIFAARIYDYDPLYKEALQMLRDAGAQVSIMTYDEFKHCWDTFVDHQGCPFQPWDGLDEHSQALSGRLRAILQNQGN
Glyceraldehyde-3-phosphate dehydrogenase, sequence (P04406 whole entry): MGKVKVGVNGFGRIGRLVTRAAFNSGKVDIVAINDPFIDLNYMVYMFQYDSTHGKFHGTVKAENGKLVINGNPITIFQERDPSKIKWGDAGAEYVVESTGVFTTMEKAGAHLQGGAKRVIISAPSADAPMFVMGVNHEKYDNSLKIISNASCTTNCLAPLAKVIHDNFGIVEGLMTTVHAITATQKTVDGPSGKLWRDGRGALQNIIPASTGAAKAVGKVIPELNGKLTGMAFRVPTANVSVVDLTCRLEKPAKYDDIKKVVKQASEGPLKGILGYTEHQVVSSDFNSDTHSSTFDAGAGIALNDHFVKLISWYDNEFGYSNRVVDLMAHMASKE

## COc1nc(-c2ccc(Cl)cc2)ccc1-c1noc(-c2ccco2)n1
Estrogen receptor
  EC50: 10.9 µM (active)

## C=CCNC1=C(Cl)C(=O)N(c2cccc(Cl)c2Cl)C1=O
Caspase-7
  EC50: > 85.3 µM (inactive)
Caspase-3
  EC50: > 85.3 µM (inactive)

## Cc1ccc(/C=C2/SC(=S)N(CC(=O)Nc3ncc(Cc4ccc(C)cc4)s3)C2=O)cc1
[1]
  CC50: 37.9 µM (active)

## CCc1ccc(N2CSC3=C(C#N)C(c4cccs4)CC(=O)N3C2)cc1 (stereo unspecified)
[2]
  EC50: 77.8 µM (not active)
[3]
  IC50: 13.1 µM (active)
[4]
  EC50: 63.3 µM (not active)
[5]
  IC50: 8.18 µM (active)
[6]
  IC50: > 50 µM (inactive)
[7]
  EC50: 50.7 µM (not active)

## COC(=O)C/C=C1\c2ccccc2C(OC)C1C (stereo unspecified)
Cytochrome P450 2D6
  AC50: 0.0794 µM (inconclusive)

## CC1(C)CC(=O)c2c(/C=C/c3ccccc3)n[nH]c2C1
[8]
  IC50: > 100 µM (inactive)
[9]
  IC50: > 100 µM (inactive)
[10]
  IC50: > 100 µM (not active)

## O=C(NCC1COc2ccccc2O1)C1CCCN(S(=O)(=O)c2c[nH]cn2)C1 (stereo unspecified)
HeLa
  CC50: > 99 µM (not active)

## CC(C)c1ccc(N2C(=O)NC(=O)/C(=C\C=C\c3ccco3)C2=O)cc1
[11]
  CC50: 23.8 µM (active)
[12]
  CC50: 37.8 µM (active)
[13]
  EC50: 19 µM (active)
[14]
  AC50: 1.23 µM (active)

## O=C(O)CCn1ccnc1-c1ccccc1
Estrogen receptor
  EC50: 12.5 µM (not active)

## CC1Cc2c(-c3ccccc3)nc3c(c2CO1)CN(CCOc1ccccc1)CC3 (stereo unspecified)
Cytochrome P450 2D6
  AC50: 5.01 µM (inconclusive)
Cytochrome P450 3A4
  AC50: 3.98 µM (inconclusive)

## Cc1cccc(N2CCN(CCNC(=O)Cn3c(=O)c4cccn4c4cccnc43)CC2)c1C
[15]
  IC50: > 32 µM (inactive)
[16]
  IC50: > 32 µM (inactive)
[17]
  IC50: > 20 µM (inactive)
Mu-type opioid receptor
  IC50: 6.33 µM (active)

## CCn1ncc(/C=N/NC(=O)c2ccc3c(c2)c(C)c(C)n3Cc2ccccc2)c1C
[9]
  IC50: > 100 µM (inactive)

## Cc1cc(-c2nnc(S)n2/N=C/c2cccc([N+](=O)[O-])c2)[nH]n1
[5]
  IC50: 3.68 µM (active)
[18]
  IC50: > 100 µM (inactive)

## Cc1ccc(/C=N/n2c(S)nnc2-c2ccco2)cc1
[5]
  IC50: 3.02 µM (active)
Large T antigen
  IC50: 33.6 µM (active)
[18]
  IC50: > 100 µM (inactive)

## COc1ccc(/C=C/C(=O)NCC(=O)N/N=C/c2cc(Br)ccc2OCc2ccccc2)cc1
[1]
  CC50: > 40 µM (active)

## Cc1ccn2c(-c3csc(NCc4ccco4)n3)c(C)nc2c1
[3]
  IC50: 8.87 µM (active)
[6]
  IC50: > 50 µM (inactive)
[19]
  EC50: 1.5 µM (active)
